IC50 data for 11 compounds are collected here from US9067934B2, “Bicyclic pyridinones” (Pfizer Inc., priority 2011, dated 2015).

Where a name gives a salt, the structure may show the parent alone.

For the assay, the system named is production of amyloid beta protein Aβ(1-42) (γ-secretase) in human WT-APP overexpressing CHO cells. Briefly: Cell-Based γ-Secretase Assay with ELISA Readout. As to conditions: human WT-APP overexpressing CHO cells, ~24 hours at 37° C., Aβ(1-42) ELISA; footnotes: a = geometric mean of >15 determinations, b = single determination, c = geometric mean of 7-15 determinations; read-out: Aβ 42B IC50 (Geometric Mean of 2-6 Determinations). The method, then:
Cell-Based γ-Secretase Assay with ELISA Readout
The ability of compounds to modulate production of amyloid beta protein Aβ(1-42) was determined using human WT-APP overexpressing CHO cells. Cells were plated at 22,000 cells/100 μL well in 96 well tissue culture treated, clear plates (Falcon) in DMEM/F12 based medium and incubated for 24 hours at 37° C. Compounds for testing were diluted in 100% DMSO to achieve an eleven points, half log, dose response for IC50 determinations. Compounds were added in fresh medium to achieve 1% final DMSO. Appropriate vehicle or inhibitor controls were added into control wells individually to obtain minimum or maximum inhibition values, respectively, for the assay signal window before the plates were incubated for ˜24 hours at 37° C. This procedure produces conditioned media in each well which is tested for Aβ(1-42) levels in the ELISA detection step described next. The remaining cell cultures in each well are also tested for cell toxicity as described below.
Coating of ELISA assay plates was initiated by addition of 50 μL/well of an in-house Aβ(1-42) specific antibody at (3 μg/mL) in 0.1 M NaHCO3 (pH 9.0) into black 384-well Maxisorp® plates (Nunc) and incubated overnight at 4° C. The capture antibody was then aspirated from the ELISA assay plates and plates were washed 4×100 μL with Wash Buffer (Dulbecco's PBS, 0.05% Tween 20). 90 μL/well of Blocking Buffer (Dulbecco's PBS, 1.0% BSA (Sigma A7030)) was then added to plates. Ambient temperature incubation was allowed to proceed for a minimum of two hours. Blocking buffer was then removed and 20 μL/well Assay Buffer (Dulbecco's PBS, 1.0% BSA (Sigma A7030), 0.05% Tween 20) was then added. At this point, 40 μL (in duplicate) of experimental conditioned media (described above) were transferred into wells of the blocked ELISA plates containing the capture antibody, followed by overnight incubation at 4° C. Cell toxicity was also measured in the corresponding remaining cells after removal of the conditioned media for the Aβ(1-42) assay by a colorimetric cell proliferation assay (CellTiter 96® AQueous One Solution Cell Proliferation Assay, Promega) according to the manufacturer's instructions.
After overnight incubation of the ELISA assay plates at 4° C., unbound Aβ peptides were removed via (4×100 μL) washes with Wash Buffer. Europium (Eu) labeled (custom labeled, Perkin Elmer) Aβ(1-16) 6e10 Monoclonal Antibody (Covance #SIG-39320) was added, (50 μL/well Eu-6e10 @ 1:10,000, 20 uM EDTA) in Assay Buffer. Incubation at ambient temperature for a minimum of 2 hours was followed by (4×100 μL) washes with Wash Buffer, before 30 μL/well of Delfia Enhancement Solution (Perkin Elmer) was added. Following an one hour ambient temperature incubation, the plates were read on an EnVision plate reader (Perkin Elmer) using standard DELFIA TRF settings. Data analysis including inhibitory IC50 determination was performed using nonlinear regression fit analysis (in-house software) and the appropriate plate mean values for the maximum and minimum inhibition controls.
A general note: An ELISA detects its analyte on a solid surface through an enzyme-linked reagent.
Usually IC50 stands for the concentration at which inhibition is half-maximal. As for `Cc1cn(-c2ccc3n(c2=O)CCN(CCOc2ccc(Cl)cc2C(C)(C)O)C3=O)cn1` [Example 44, 2-{2-[4-chloro-2-(1-hydroxy-1-methylethyl)phenoxy]ethyl}-7-(4-methyl-1H-imidazol-1-yl)-3,4-dihydro-2H-pyrido[1,2-a]pyrazine-1,6-dione, trifluoroacetate salt], the IC50 stood at 142 nM.
`Cc1cn(-c2ccc3n(c2=O)CCN(CCOc2ccc(Cl)c(F)c2C(F)(F)F)C3=O)cn1` [Example 45, 2-{2-[4-chloro-3-fluoro-2-(trifluoromethyl)phenoxy]ethyl}-7-(4-methyl-1H-imidazol-1-yl)-3,4-dihydro-2H-pyrido[1,2-a]pyrazine-1,6-dione, trifluoroacetate salt]: the IC50 amounted to 66.3 nM.
As to `Cc1cn(-c2ccc3n(c2=O)CCN(CCOc2cccc4c(Cl)ccc(Cl)c24)C3=O)cn1` [Example 46, 2-{2-[(5,8-dichloro-1-naphthyl)oxy]ethyl}-7-(4-methyl-1H-imidazol-1-yl)-3,4-dihydro-2H-pyrido[1,2-a]pyrazine-1,6-dione, trifluoroacetate salt], the IC50 turned out to be 9.38 nM.
For `Cc1cn(-c2ccc3n(c2=O)CCN(CCOc2ccnc4cc(C(F)(F)F)c(Cl)cc24)C3=O)cn1` [Example 47, 2-(2-{[6-chloro-7-(trifluoromethyl)quinolin-4-yl]oxy}ethyl)-7-(4-methyl-1H-imidazol-1-yl)-3,4-dihydro-2H-pyrido[1,2-a]pyrazine-1,6-dione], the IC50 was 9.48 nM.
For the compound `Cc1cn(-c2ccc3n(c2=O)CCN(CCOc2ccc(F)cc2-c2ccnc(C(F)(F)F)c2)C3=O)cn1` [Example 48, 2-(2-{4-fluoro-2-[2-(trifluoromethyl)pyridin-4-yl]phenoxy}ethyl)-7-(4-methyl-1H-imidazol-1-yl)-3,4-dihydro-2H-pyrido[1,2-a]pyrazine-1,6-dione], the half-inhibitory concentration (IC50) was determined as 143 nM.
The figure for `Cc1cn(-c2ccc3n(c2=O)CCN(CCOc2ccccc2-c2cc(C(F)(F)F)[nH]n2)C3=O)cn1` [Example 49, 7-(4-methyl-1H-imidazol-1-yl)-2-(2-{2-[5-(trifluoromethyl)-1H-pyrazol-3-yl]phenoxy}ethyl)-3,4-dihydro-2H-pyrido[1,2-a]pyrazine-1,6-dione] is 178 nM.
Take `Cc1cn(-c2ccc3n(c2=O)CCN(CCOc2ccc(Cl)cc2-n2ccc(C(F)(F)F)n2)C3=O)cn1` [Example 50, 2-(2-{4-chloro-2-[3-(trifluoromethyl)-1H-pyrazol-1-yl]phenoxy}ethyl)-7-(4-methyl-1H-imidazol-1-yl)-3,4-dihydro-2H-pyrido[1,2-a]pyrazine-1,6-dione, trifluoroacetate salt]: the IC50 was 29.3 nM.
As to `Cc1cn(-c2ccc3n(c2=O)CCN(CCOc2cc(C(F)(F)F)nc4c(C)ccc(Cl)c24)C3=O)cn1` [Example 51, 2-(2-{[5-chloro-8-methyl-2-(trifluoromethyl)quinolin-4-yl]oxy}ethyl)-7-(4-methyl-1H-imidazol-1-yl)-3,4-dihydro-2H-pyrido[1,2-a]pyrazine-1,6-dione], the IC50 turned out to be 20 nM.
`Cc1cn(-c2ccc3n(c2=O)CCN(CCOc2ccc(F)cc2-c2csc(C(F)(F)F)n2)C3=O)cn1` [Example 52, 2-(2-{4-fluoro-2-[2-(trifluoromethyl)-1,3-thiazol-4-yl]phenoxy}ethyl)-7-(4-methyl-1H-imidazol-1-yl)-3,4-dihydro-2H-pyrido[1,2-a]pyrazine-1,6-dione]: the IC50 came to 23.5 nM.
With `Cc1cn(-c2ccc3n(c2=O)CCN(CCOc2cccc4cc(F)ccc24)C3=O)cn1` [Example 53, 2-{2-[(6-fluoro-1-naphthyl)oxy]ethyl}-7-(4-methyl-1H-imidazol-1-yl)-3,4-dihydro-2H-pyrido[1,2-a]pyrazine-1,6-dione, trifluoroacetate salt], the IC50 was determined as 26.2 nM.
Regarding `COc1ccc(-c2cc(C(F)(F)F)[nH]n2)c(OCCN2CCn3c(ccc(-n4cnc(C)c4)c3=O)C2=O)c1` [Example 54, 2-(2-{5-methoxy-2-[5-(trifluoromethyl)-1H-pyrazol-3-yl]phenoxy}ethyl)-7-(4-methyl-1H-imidazol-1-yl)-3,4-dihydro-2H-pyrido[1,2-a]pyrazine-1,6-dione], the IC50 turned out to be 215 nM.
